# Laboratory results taken from patent US6423335B1, “Modified milk powder composition” (priority 1999, dated 2002).
# What was measured:
# Format in all cases: in vivo, rats (the Donryu strain)
# [1] = Low protein diet feeding in rats: body weight, weight of tissues, BUN, blood profile (Example 1); settings: for efficiency of protein utilization of feed / feed efficiency: versus 3% protein diet group; for level of platelets: versus suppression in 3% protein diet group
# Text: (§1) Four-week-age male rats (the Donryu strain) were fed 20% protein diet for one week. Then, glutamine (Gln) and glutamic acid (Glu) each were mixed into 3% protein diet at the level of 5% (w/w) and offered to the rats for three weeks. Also, a 20% protein diet group and a 3% protein diet group were set as controls. Upon each rat, body weight, weight of tissues, blood urea nitrogen (BUN), the level of leukocytes, the level of erythrocytes, hematocrit, the level of platelets, and production of TNF-α by peritoneal macrophage as an index of immune response were determined.
# peritoneal macrophage [2] = test: Production of TNF-α by peritoneal macrophage as an index of immune response (Example 1); settings: 5% (w/w) in 3% protein diet, three weeks; versus suppression in 3% protein diet group
# Text: as §1
# [3] = Commercial modified milk powder feeding in rats: body weight, weight of tissues, BUN, blood profile (Example 2); settings: two weeks
# Text: (§2) Then, using commercial modified milk powder (milk serum protein, soybean oil, lactose, and various vitamins and minerals were mixed; level of proteins was from 12 to 13% by weight) as a control, glutamine ([…] became 2, 5, 8, or 40%), and each diet was offered (free ingestion) for two weeks. Upon each rat, body weight, weight of tissues, blood urea nitrogen (BUN), the level of leukocytes, the level of erythrocytes, hematocrit, the level of platelets, and production of TNF-α by peritoneal macrophage as an index of immune response were measured.
# peritoneal macrophage [4] = test: Production of TNF-α by peritoneal macrophage as an index of immune response (Example 2); settings: two weeks
# Text: as §2
# [5] = 5% (w/w) in 3% protein diet, three weeks
# [6] = male rats, 5% (w/w) in 3% protein diet, three weeks
# [7] = 0.3% Gln in modified milk powder
# [8] = 0.65% Gln in modified milk powder
# [9] = 1.5% Gln group, modified milk powder
compound,measurement,setting,value
"NC(=O)CC[C@H](N)C(=O)O [Gln, glutamine]",remarkable decrease of body weight on low protein diet,"[1]; 5% (w/w) in 3% protein diet, three weeks, compared with 3% protein diet group",this phenomenon was observed
same,efficiency of protein utilization of feed,[1]; [5],higher than those in the 3% protein diet group
same,feed efficiency,[1]; [5],higher than those in the 3% protein diet group
same,level of platelets,[1]; [5],improvement was observed
same,Body weight at the end of experiment,[1]; [6],200.2 ± 3.1
same,Blood urea nitrogen,"[1]; rat, in vivo",18.9 ± 2.1 mg/dL
same,production of TNF-α by peritoneal macrophage,peritoneal macrophage [2],improvement was observed
same,Blood urea nitrogen,[3]; [7],20.5 mg/dL
same,Body weight at the end of experiment,[3]; [7],233.1
same,body weight and any of the other indexes versus control group (Gln 0%),[3]; [7],no difference
same,Blood urea nitrogen,[3]; [8],22.1 mg/dL
same,Body weight at the end of experiment,[3]; [8],238.2
same,body weight versus control group,[3]; [8],a slight difference
same,Blood urea nitrogen,[3]; 1% Gln in modified milk powder,23.4 mg/dL
same,Body weight at the end of experiment,[3]; 1% Gln in modified milk powder,241.7
same,body weight as compared with the control group,[3]; [9],there were observed differences
same,level of platelets as compared with the control group,[3]; [9],there were observed differences
same,Blood urea nitrogen,[3]; 5% Gln in modified milk powder,24.1 mg/dL
same,Body weight at the end of experiment,[3]; 5% Gln in modified milk powder,245.8
same,production of TNF-α by peritoneal macrophage versus control group,peritoneal macrophage [4]; [8],higher than that at the control group
same,production of TNF-α by peritoneal macrophage as compared with the control group,peritoneal macrophage [4]; [9],there were observed differences
"N[C@@H](CCC(=O)O)C(=O)O [Glu, glutamic acid]",efficiency of protein utilization of feed,[1]; [5],this beneficial phenomenon was not observed
same,feed efficiency,[1]; [5],this beneficial phenomenon was not observed
same,level of platelets,[1]; [5],no improvement
same,Blood urea nitrogen,[1]; [6],18.8 ± 2.9 mg/dL
same,Body weight at the end of experiment,[1]; [6],180.5 ± 3.8
same,production of TNF-α by peritoneal macrophage,peritoneal macrophage [2],no improvement
